Results: BindingDB's records for doi:10.1021/cc990074a (Ariad Pharmaceuticals, 2000)

target: Proto-oncogene tyrosine-protein kinase Src (Homo sapiens); experiment: Compounds were tested for binding to Src SH2 using a fluorescence polarization binding assay according to methods previously described. IC50 values were assigned to individual compounds according to their competitive binding affinity versus a high-affinity peptide probe, fluorescein-pTyr-pTyr-pTyr-Ile-Glu-NH2.

IC50 [µM] | Structure (SMILES)
37 | COc1ccc(C(C)NC(=O)C(Cc2ccc(OP(=O)(O)O)cc2)NC(C)=O)cc1C(N)=O (stereo not drawn) [Src SH2 inhibitor, 1b]
> 100 | O=C(NCc1ccc(OCC2CCCCC2)cc1)c1ccc(OP(=O)(O)O)cc1 [Src SH2 inhibitor, 4]

Structure (SMILES) | IC50 [µM]
NC(=O)c1cc(CNC(=O)c2ccc(OP(=O)(O)O)cc2)ccc1OCC1CCCCC1 [Src SH2 inhibitor, 3] | 6.5
